Data taken from PubChem BioAssay (NCI).
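Cultured in 96-well plates, cells were exposed to test compound for 48 hours across five concentrations. TGI: concentration producing complete growth inhibition.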

What was measured:
Test in all cases: growth of human tumour cells (NCI), 48 h
OVCAR-5 ovarian = system: OVCAR-5 ovarian
NCI/ADR-RES ovarian = system: NCI/ADR-RES ovarian
SNB-75 CNS = system: SNB-75 CNS
MDA-MB-231 breast = system: MDA-MB-231 breast
CCRF-CEM leukemia = system: CCRF-CEM leukemia
A549 NSCLC = system: A549 NSCLC
COLO 205 colon = system: COLO 205 colon
SK-OV-3 ovarian = system: SK-OV-3 ovarian
OVCAR-8 ovarian = system: OVCAR-8 ovarian
HL-60(TB) leukemia = system: HL-60(TB) leukemia

SMILES	TGI (OVCAR-5 ovarian) [µM]	TGI (NCI/ADR-RES ovarian) [µM]	TGI (SNB-75 CNS) [µM]	TGI (MDA-MB-231 breast) [µM]	TGI (CCRF-CEM leukemia) [µM]	TGI (A549 NSCLC) [µM]	TGI (COLO 205 colon) [µM]	TGI (SK-OV-3 ovarian) [µM]	TGI (OVCAR-8 ovarian) [µM]	TGI (HL-60(TB) leukemia) [µM]
CC(=O)c1c(N=[N+]=[N-])c2cccc3c2n(c1=O)CCC3	34.5	38.2	59.3	32.1	51.8	> 100	44.6	> 100	16.1	–
CC(=O)NC1C(Sc2ncn(C3OC(CO)C(O)C(O)C3NC(C)=O)n2)OC(CO)C(O)C1O (stereo unspecified)	> 100	> 100	–	> 100	> 100	> 100	> 100	> 100	> 100	> 100
CCOP(=O)(OCC)/C(C#N)=C/c1ccc(-c2cc(C(F)(F)F)cc(C(F)(F)F)c2)o1	26.1	23.6	27.9	26.8	34.3	31.3	27.4	–	32	14.3
Cc1n[n+](Cc2ccccc2)c2sc(N)nn12	> 100	> 100	> 100	–	> 100	> 100	> 100	> 100	> 100	–
COC(=O)[C@@H](NC(=O)N(Cc1ccccc1)C[C@H](CC(C)C)NC(=O)[C@@H](NC(=O)OC(C)(C)C)C(C)C)C(C)C	> 100	> 100	> 100	> 100	–	> 100	> 100	> 100	> 100	> 100
COC(=O)N[C@H](C(=O)NC(OCc1ccccc1)C1COC(C)(C)O1)C(C)O[Si](C)(C)C(C)(C)C (stereo partly specified)	> 100	> 100	> 100	–	> 100	> 100	> 100	> 100	> 100	> 100
CCCCCCc1cc2cc(C(=O)Nc3ccc(F)cc3)c(=N)oc2cc1O	> 100	8.94	–	–	3.8	14.9	> 100	8.09	3.75	4.62
COc1ccc(/C(Cl)=C(\C#N)c2ccc(OC)c(OC)c2)cc1OC	> 100	–	–	> 100	–	> 100	> 100	–	–	> 100
C=C1CC[C@H]2C(=O)OC(c3ccoc3)C[C@]2(C)C/C=C\C=C/1C(=O)OC (stereo partly specified)	> 25	> 25	> 25	> 25	–	> 25	> 25	> 25	> 25	–
O=C(NCCN1CCOCC1)c1ccc(I)cc1	> 100	> 100	> 100	–	> 100	> 100	–	> 100	> 100	> 100
COc1cc2c(cc1O)NC(=O)[C@@H]1CCCN1C2=O	> 100	> 100	> 100	> 100	> 100	> 100	> 100	> 100	> 100	–
